Experimental data reported in patent publication US10179914B2, “CDC25A inhibitor for the treatment of drug resistant cancer or for the prevention of tumor relapse” (INSERM (INSTITUT NATIONAL DE LA SANTÉ ET DE LA RECHERCHE …, priority 2014, dated 2019).

Key:
CDC25A [1] = assay: CDC25A protein level by western blot; assay type: cell-based, human; details: for CDC25A protein level: 2 hours
Protocol: (a) MV4-11 (left panel) and MOLM-14 (right panel) FLT3-ITD expressing cells were treated for 2 hours with FLT3 inhibitor III (100 nM), and the protein levels of CDC25A, CDC25B, CDC25C, Cyclin A, Cyclin D1 and p27Kip1 were analyzed by western blot. (b) MOLM-14 (FLT3-ITD postive), KG1 and HL-60 (FLT3 wt positive) and K562 (FLT3 negative) cell lines were treated for 2 hours with FLT3 inhibitor III and the level of CDC25A was analyzed by western blot. Actin was used as a loading control.
(a) MV4-11 (left panel) and MOLM-14 (right panel) cells were treated for 2 hours with STAT5 inhibitor (100 nM). CDC25A, Pim1, and STAT5 protein and phosphorylation levels were analyzed by western blot. (b) MV4-11 and MOLM-14 cells were transfected for 24 hours with STAT5A/B siRNA and the impact on CDC25A protein level was analyzed by western blot. […] Actin was used as a loading control in these experiments. ns: non specific.
(a) MV4-11 cells were first treated by cycloheximide (50 μg/mL) for 90 minutes in order to completely down regulate CDC25A. […] The FLT3 inhibitor was added 30 minutes before medium wash. This western blot is representative of three independent experiments. […] (b) CDC25A mRNA expression was measured by quantitative RT-PCR after FLT3 inhibition for 2 hours (100 nM). […] (c) MV4-11 cells were treated with cycloheximide (50 μg/mL) for the indicated times. FLT3 inhibitor III (100 nM) was added 30 minutes before cycloheximide treatment, and left in the medium. This western blot is representative of three independent experiments.
Cell lines and reagents. […] Concerning MOLM-14 cell line, the presence of a monoallelic 21 bp FLT3-ITD mutation and of an MLL-containing ins(11; 9)(q23;p22p23) were verified (Hematology laboratory of Toulouse University Hospital, Prof E. Delabesse and Dr I. Luquet). KG1 and HL-60 (ACC-14 and ACC-3, DSMZ) cell lines were grown in Iscove's Modified Dulbecco's Medium (IMDM, Gibco) plus 20% FBS. All cells were grown in the presence of 100 units/ml of penicillin and streptomycin (Invitrogen) at 37° C. and 5% CO2.
siRNA. The MV4-11 cell line was transfected with the Amaxa nucleofection technology (Lonza, Koeln, Germany). […] Twenty-four or forty-eight hours after transfection, cells were counted (trypan blue staining), and western blotting was performed.
Western blot. 2×10^6 cells were usually lysed in 100 μL of NuPAGE® LDS Sample Buffer (Novex, Life Technologies, Carlsbad, Calif., USA), sonicated for 15 seconds, and boiled for 3 minutes. Proteins were then resolved on NuPAGE® 4-12% Bis-Tris Gels and transferred to nitrocellulose membrane. Saturation of the membrane was done for 1 hour in Tris Buffer Saline with Tween 0.1% (TBS-T) containing 5% non-fat milk or 5% bovine serum albumin. Membranes were blotted with proper antibodies overnight at 4° C., washed thrice with TBS-T, and incubated for 30 minutes with HRP-conjugated secondary antibody (Promega, Madison, Wis., USA).

Cdc25C = Cdc25C (Homo sapiens, UniProt P30307); details: cited from earlier work
Chain of Cdc25C (P30307 whole entry): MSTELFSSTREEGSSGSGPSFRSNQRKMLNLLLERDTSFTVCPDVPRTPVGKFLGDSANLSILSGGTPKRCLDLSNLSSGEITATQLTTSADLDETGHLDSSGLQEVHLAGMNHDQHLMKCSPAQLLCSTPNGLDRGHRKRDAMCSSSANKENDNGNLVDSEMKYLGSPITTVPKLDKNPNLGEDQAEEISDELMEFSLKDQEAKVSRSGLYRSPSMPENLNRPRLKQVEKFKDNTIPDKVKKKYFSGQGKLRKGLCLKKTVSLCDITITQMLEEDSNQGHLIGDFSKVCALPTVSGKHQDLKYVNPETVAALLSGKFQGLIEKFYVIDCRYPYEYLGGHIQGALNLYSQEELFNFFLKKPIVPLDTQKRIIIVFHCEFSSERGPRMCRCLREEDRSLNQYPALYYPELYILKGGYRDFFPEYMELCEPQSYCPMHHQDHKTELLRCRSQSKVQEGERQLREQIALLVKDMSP

Mia-Paca-2 tumors = details: active after oral administration; cited from earlier work
Cdc25B = biological target: T1, Cdc25B (Homo sapiens, UniProt P30305); details: cited from earlier work
T1 sequence (P30305 1-580): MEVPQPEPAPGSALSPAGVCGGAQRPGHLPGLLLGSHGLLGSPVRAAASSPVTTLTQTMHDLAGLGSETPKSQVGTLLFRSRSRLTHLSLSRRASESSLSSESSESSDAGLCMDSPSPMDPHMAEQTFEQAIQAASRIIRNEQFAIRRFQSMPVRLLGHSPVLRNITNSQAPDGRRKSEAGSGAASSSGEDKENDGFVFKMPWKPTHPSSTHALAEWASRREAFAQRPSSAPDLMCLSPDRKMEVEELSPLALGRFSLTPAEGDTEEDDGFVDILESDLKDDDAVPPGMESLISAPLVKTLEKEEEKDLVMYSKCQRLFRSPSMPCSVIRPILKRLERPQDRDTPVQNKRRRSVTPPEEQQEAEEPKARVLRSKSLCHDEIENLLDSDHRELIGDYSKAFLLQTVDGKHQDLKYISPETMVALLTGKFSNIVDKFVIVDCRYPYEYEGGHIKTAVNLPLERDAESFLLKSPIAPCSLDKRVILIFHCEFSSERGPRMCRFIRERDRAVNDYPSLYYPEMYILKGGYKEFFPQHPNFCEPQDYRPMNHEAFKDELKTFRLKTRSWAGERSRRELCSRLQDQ

Cdc25A [2] = biological target: Cdc25A (Homo sapiens, UniProt P30304); details: cited from earlier work
Chain of Cdc25A (P30304 whole entry): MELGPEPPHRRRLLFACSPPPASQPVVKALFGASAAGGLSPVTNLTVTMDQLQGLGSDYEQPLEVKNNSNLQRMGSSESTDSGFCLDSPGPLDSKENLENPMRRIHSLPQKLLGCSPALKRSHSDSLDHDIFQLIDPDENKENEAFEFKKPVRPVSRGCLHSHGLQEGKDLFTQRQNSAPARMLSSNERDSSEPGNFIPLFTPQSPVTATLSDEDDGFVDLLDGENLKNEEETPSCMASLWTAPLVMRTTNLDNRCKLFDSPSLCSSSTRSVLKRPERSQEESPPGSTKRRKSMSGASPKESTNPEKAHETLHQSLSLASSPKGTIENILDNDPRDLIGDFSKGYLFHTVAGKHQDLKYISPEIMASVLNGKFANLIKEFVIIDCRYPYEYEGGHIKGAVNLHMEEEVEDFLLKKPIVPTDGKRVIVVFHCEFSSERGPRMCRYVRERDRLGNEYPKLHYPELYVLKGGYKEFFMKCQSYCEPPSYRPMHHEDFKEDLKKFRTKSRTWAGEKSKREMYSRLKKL

[3] = tested on: human cell lines (tumor cell proliferation); details: cited from earlier work
CDC25A mRNA = CDC25A mRNA by quantitative RT-PCR; assay type: cell-based, human; details: two hours, 100 nM, MOLM-14 cells
Protocol: (a) MV4-11 cells were first treated by cycloheximide (50 μg/mL) for 90 minutes in order to completely down regulate CDC25A. Cells were then placed in normal culture conditions in the presence (lower panel) or the absence (upper panel) of FLT3 inhibitor (100 nM), and western blot analysis of CDC25A was performed at the indicated times. The FLT3 inhibitor was added 30 minutes before medium wash. This western blot is representative of three independent experiments. […] (b) CDC25A mRNA expression was measured by quantitative RT-PCR after FLT3 inhibition for 2 hours (100 nM). […] (c) MV4-11 cells were treated with cycloheximide (50 μg/mL) for the indicated times. FLT3 inhibitor III (100 nM) was added 30 minutes before cycloheximide treatment, and left in the medium. This western blot is representative of three independent experiments.
Quantitative RT-PCR. Total RNA was extracted by RNeasy Kit (Qiagen) according to the manufacturer. RNA quality and purity was assessed by using the Agilent RNA 6000 Nano kit (Agilent Technologies, Santa Clara, Calif., USA). cDNA was generated with the SuperScript III First-Strand Synthesis System for RT-PCR (Invitrogen) following the manufacturer instructions. […] Results were analyzed with the LightCycler®480 software release 1.5.0 SP4 using the conventional ΔΔCt method.

MOLM-14 and MV4-11 cells = assay: Differentiation of FLT3-ITD AML cell lines (surface markers, morphology); assay type: cell-based, human; details: another CDC25 inhibitor
Protocol: (a-b) MOLM-14 and MV4-11 cells were treated for different times with IRC-083864 (100 nM and 200 nM) and the expression of the cell surface markers CD11b, CD14 and CD15 were followed by flow cytometry analysis. (c) MOLM-14 and MV4-11 cells were treated for different times with IRC-083864 (100 nM) and morphological changes were estimated by microscopy after cells were cytospun and stained at days 8 and 13. Original magnification ×100. (d) MOLM-14 cells were treated for different times with IRC-083864 (100 nM) and c-myc expression as well as C/EBPα phosphorylation on serine 21 were analyzed by western blot at day 1, and C/EBPε expression after 6 days of treatment. (e) MOLM-14 cells were transfected with CDC25A shRNA The expression of the cell surface markers CD11b, CD14 and CD15 were followed by flow cytometry analysis at day 3 and 6 (upper panel), and their morphology was analyzed by microscopy after 6 days (lower panel). Original magnification ×100. (f) MOLM-14 cells were transfected with CDC25A siRNA, and their morphology was analyzed by microscopy after 3 days (upper panel). Original magnification ×100. The efficiency of CDC25A siRNA was assessed by western blot analysis (lower panel).
Lentiviral infections. To generate lentiviral vectors expressing CDC25A protein, sequences were cloned into the pTrip-TAL-Ires-GFP lentiviral vector. We used 293-T packaging cells, co-transfected with lentiviral protein (GAG, POL, and ENV) encoding plasmids, and plasmids containing a control or CDC25A genes, separately. Supernatants containing lentivirus were collected 48 h after transfection, during 3 consecutive days. MOLM-14 cells were plated at 5×10^5 cells in 200 μl in serum-free medium and 5 μl of lentiviral supernatant was added during 3 h. Cells were then grown in 10% FBS RPMI medium.
Flow cytometry. Apoptotic cells were detected with Annexin V-FITC detection kit from BD Pharmingen (San Diego, Calif., USA) according to the manufacturer instructions. To evaluate AML cell differentiation, cells were stained for 30 min with the following anti-human monoclonal antibodies: CD11b-PE (Beckman Coulter), CD14-FITC (BD Biosciences), CD15-APC (BD Biosciences). For patient samples, additional hCD45-APC-H7 (BD Biosciences), Annexin V-Pacific Blue (BioLegend, San Diego, Calif., USA) and 7-AAD (Sigma) were used; and for bone marrow mice cells, additional CD33-FITC, CD44-PE Cy7, mCD45-PerCP Cy 5.5, CD14-Alexa 700 were used. Data were collected on a LSRII or a LSRFortessa cytometer (BD Biosciences), and analyzed with FlowJo software. A minimum of 10,000 events was collected.
Morphological examination. […] were spun at 500 rpm for 5 minutes onto glass slides and May-Grünwald-Giemsa stained at the Toulouse University Hospital hematology laboratory.

[4] = tested on: FLT3-wild type primary AML samples; assay: Differentiation of FLT3 wild-type primary AML samples; assay type: cell-based, human; details: same conditions
Text: Patient samples. Patient AML samples were obtained after informed consent in accordance with the Declaration of Helsinki and stored at the HIMIP collection. According to the French law, HIMIP collection has been declared to the Ministry of Higher Education and Research (DC 2008-307 collection 1) and obtained a transfer agreement (AC 2008-129) after approbation by ethical committees (Comité de Protection des Personnes Sud-Ouest et Outremer II and APHP ethical committee). Clinical and biological annotations of the samples have been declared to the CNIL (Comité National Informatique et Libertés i.e. Data processing and Liberties National Committee). Frozen cells were thawed in IMDM medium with 20% FBS and immediately processed for treatment. All patients were diagnosed at the Department of Hematology of Toulouse University Hospital.
Co-cultures. […]
Flow cytometry. Apoptotic cells were detected with Annexin V-FITC detection kit from BD Pharmingen (San Diego, Calif., USA) according to the manufacturer instructions. […] Data were collected on a LSRII or a LSRFortessa cytometer (BD Biosciences), and analyzed with FlowJo software. […]

[5] = tested on: transplanted rat hepatoma cells (Fisher F344); details: delivered intraperitoneally; cited from earlier work
human Hep 3B tumor cells = details: read-out: IC50 growth of human Hep 3B tumor cells; cited from earlier work

CC(C)(C)c1cc(NC(=O)Nc2ccc(-c3cn4c(n3)sc3cc(OCCN5CCOCC5)ccc34)cc2)no1 [AC220, quizartinib]
CDC25A protein level (CDC25A [1]; MV4-11 and MOLM-14 cells): induced CDC25A down-regulation

Cc1nc2c(s1)C(=O)C=C(NCCN(C)C)C2=O [BN82685, reference compound]
IC50 (Cdc25C): 171 nM | growth of Mia-Paca-2 tumors xenografted into nude mice (Mia-Paca-2 tumors): inhibited the growth | IC50 (Cdc25B): 250 nM | IC50 (Cdc25A [2]): 250 nM | growth inhibition in presence of classical resistance mechanisms (drug efflux pumps, P-glycoprotein, multi-drug resistance proteins) [3]: unaffected | duration of proliferation inhibition after short treatment ([3]; treatment time 1 h): 96 h

c1ccc(-c2cnc(Nc3ccc(OCCN4CCCC4)cc3)s2)cc1 [FLT3 inhibitor III]
CDC25A protein level (CDC25A [1]; KG1, HL-60 (FLT3-wild type) and K562 (FLT3 non-expressing) cells): did not modify | CDC25A protein level (CDC25A [1]; MV4-11 and MOLM-14 cells): induced CDC25A down-regulation | stability of CDC25A protein (half-life with cycloheximide) (CDC25A [1]; cycloheximide 50 μg/mL, inhibitor 100 nM): did not significantly modify | accumulation of CDC25A protein (rate of synthesis) (CDC25A [1]; time course, 100 nM, FIG. 3a): significantly decreased | CDC25A mRNA level (CDC25A mRNA): significantly reduced

O=C1C(SCCO)=C(SCCO)C(=O)c2ccccc21 [NSC-95397, reference compound]
CD11b, CD14 and CD15 markers expression (MOLM-14 and MV4-11 cells): modifications | nuclear morphology (MOLM-14 and MV4-11 cells): nuclear morphological changes | differentiation of FLT3-wild type samples [4]: no evidence of differentiation

O=C1C(SCCO)=C(SCCO)C(=O)N1c1ccc(-c2ccccc2)cc1 [PM20]
growth of transplanted rat hepatoma cells in vivo [5]: inhibits the growth | IC50 (human Hep 3B tumor cells): 700 nM
